According to patent EP0073845B1, “Imidazopyridine-spiro-piperidine compounds” (Yoshitomi Pharmaceutical Industries, Ltd., priority 1981, dated 1983):

How the values were obtained:
[1] = tested on: apomorphine-induced vomiting; assay: Effect on apomorphine-induced vomiting; assay type: in vivo; conditions: Canis lupus familiaris, po, 2 hours prior to apomorphine hydrochloride (0.1 mg/kg, s.c.); incidence of vomiting checked for 2 hours; beagle dogs
Experimental: (1) Effect on apomorphine-induced vomiting
The test was performed according to the method described by M. Nakanishi et al: in "Arzneimittel-Forschung", vol. 21, 391 ff (1971).
Groups of 5-10 beagle dogs of both sexes each were used. The test compound was administered orally 2 hours prior to the treatment with apomorphine hydrochloride (0.1 mg/kg, s.c.). The incidence of vomiting was checked for 2 hours, and the ED50 (50% effective dose) was determined.

Cataleptogenic activity = conditions: rat, in vivo, ip; Wistar female rats; from total points of the maximum appearance of catatonia
Experimental: (2) Cataleptogenic Activity
The test was performed according to the method described by W. Wirth et al. in "Archives Internationales de Pharmacodynamie et de Therapie", vol, 115, 1 ff (1958).
Groups of 5 Wistar female rats each were used. […] The ED50 was determined from total points of the maximum appearance of catatonia.

SMILES: Cl.Cl.O.O=C1NC2CCCCN2C12CCN(CCCN1c3ccccc3CCc3ccccc31)CC2 (centres unmarked) [A, 1'-[3-(10,11-dihydro-5H-dibenz[b,f]azepin-5-yl)propyl]-1,2,3,5,6,7,8,8a-octahydro-2-oxo-imidazo[1,2-a]pyridine-3-spiro-4'-piperidine dihydrochloride monohydrate]
- ED50 [1]: 2.5 mg/kg
- ED50 (Cataleptogenic activity): > 50 mg/kg

SMILES: Cl.Cl.O.O=C1NC2CCCCN2C12CCN(CCCN1c3ccccc3CCc3ccc(Cl)cc31)CC2 (centres unmarked) [B, 1'-[3-(3-chloro-10,11-dihydro-5H-dibenz[b,f]azepin-5-yl)propyl]-1,2,3,5,6,7,8,8a-octahydro-2-oxo-imidazo[1,2-a]pyridine-3-spiro-4'-piperidine dihydrochloride monohydrate]
- ED50 [1]: 0.5 mg/kg
- ED50 (Cataleptogenic activity): > 50 mg/kg

SMILES: Cl.Cl.O.O=C1N=C2CCCCN2C12CCN(CCCN1c3ccccc3CCc3ccccc31)CC2 [C, 1'-[3-(10,11-dihydro-5H-dibenz[b,f]azepin-5-yl)propyl]-2,3,5,6,7,8-hexahydro-2-oxo-imidazo[1,2-a]pyridine-3-spiro-4'-piperidine dihydrochloride monohydrate]
- ED50 [1]: 2 mg/kg
- ED50 (Cataleptogenic activity): > 50 mg/kg

SMILES: CN(C)CCCN1c2ccccc2Sc2ccc(Cl)cc21 [Chlorpromazine, reference compound]
- ED50 [1]: 5.1 mg/kg
- ED50 (Cataleptogenic activity): 12 mg/kg
